Measurements taken from publication PMC8126080, “Three Small Molecule Entities (MPK18, MPK334 and YAK308) with Activity against Haemonchus contortus In Vitro” (Molecules, 2021).
Entries after “also recorded” stand apart in the source; their conditions may differ. Where two headings read alike, the source gives them in different places.

Assays:
Type in all cases: cell-based
[1] = system: exsheathed third-stage larvae (xL3) of Haemonchus contortus; test: Primary phenotypic screen on xL3s at 20 µM (video recording, 72 h); conditions: for proportion of xL3s exhibiting the phenotype in the primary screen: 72 h, visual inspection of video recordings; for phenotype induced in xL3s in the primary screen: 72 h of exposure
Method: A library containing 245 compounds (Supplementary Table S1) was curated by the authors (T.K. and B.L.) at the Institute of Pharmaceutical and Medicinal Chemistry, Heinrich-Heine-University Düsseldorf, Germany. Individual compounds were dissolved in 100% high-performance liquid chromatography-grade dimethyl sulfoxide (DMSO; Merck, USA) to achieve stock concentrations of 20 mM. For screening, individual compounds were diluted further to the final concentration of 20 µM in Luria Bertani broth (LB) supplemented with 100 U/mL of penicillin, 100 μg/mL of streptomycin and 0.25 μg/mL of amphotericin B (designated LB*), and tested for activity in vitro against H. contortus.
(§1) Haemonchus contortus (Haecon-5 strain) was maintained in experimental sheep, in accordance with institutional animal ethics approval (permit no. 1714374; The University of Melbourne). Helminth-free Merino sheep (male; eight months of age) were inoculated orally with 7000 third-stage larvae (L3s) of H. contortus. Faecal samples containing H. contortus eggs were collected every day from 21 days following inoculation. These samples were incubated at 27 °C for one week to produce L3s, which were harvested and sieved through two layers of nylon mesh ([…] pore size; Rowe Scientific, Australia) to remove debris and dead larvae, and then stored at 11 °C for up to 6 months until use. To produce exsheathed third-stage larvae (xL3s) for in vitro assays, L3s were incubated in 0.15% (v/v) sodium hypochlorite for 20 min at 37 °C followed by five washes in 0.9% sterile saline by centrifugation at 600× g (5 min) at room temperature (22–24 °C).
Compounds were screened at 20 μM on H. contortus xL3s using an established assay. In brief, diluted test-compounds, negative controls (LB* + 0.5% DMSO) and two positive controls [20 μM of monepantel (Zolvix, Novartis Animal Health, Switzerland) and 20 μM of moxidectin (Cydectin, Virbac, France)] were added to wells of the 96-well microtiter plates (Corning, USA), and xL3s were dispensed at ~300/well to a final volume of 100 µL. Following a 72 h-incubation at 38 °C and 10% (v/v) CO2 at >90% humidity, a video recording (5 s) was taken of each well of the 96-well microtitre plate containing xL3s using a gray–scale camera (Rolera Bolt Scientific CMOS, Teledyne QImaging, Tucson, AZ, USA) and a motorised X–Y axis stage (BioPoint 2, Ludl Electronics Products, Hawthorne, CA, USA) attached to a stereomicroscope (SZ61, Olympus, Shinjuku, Japan). Primary screening was performed in duplicate. A compound was recorded as having activity if it altered worm morphology (phenotype) after 72 h of incubation.

[2] = system: exsheathed third-stage larvae (xL3) of Haemonchus contortus; test: Dose-response assay, inhibition of larval motility; conditions: for xL3 Motility (72 h) Inhibition (%): concentration not given; for IC50: Haemonchus contortus, 72 h incubation, mean ± SEM, three independent experiments in triplicate
Method: as §1
Three compounds (designated MPK18, MPK334 and YAK308) shown to have activity against H. contortus in the primary screen were evaluated for their potency by estimating their half maximal inhibitory concentrations (IC50), calculated in a dose-response assay. In brief, compounds were titrated (18-points, 2-fold serial dilution in 50 μL of LB*, 100 µM down to 0.76 nM), in 96-well microtitre plates and xL3s were dispensed in 50 µL at a density of ~300 per well. All plates were incubated at 38 °C and 10% (v/v) CO2 with >90% humidity. After 72 h of incubation, a video recording (5 s) was taken of each well in the same camera settings as the primary screen (see Section 3.3), and larval motility measured. The motility index (Mi) was calculated from video data using the unique algorithm written in a custom macro, and analysed through the program ImageJ (v.2.0.0, Fiji). Mi data were normalised to a percentage compared with negative control (LB* + 0.5% DMSO). Monepantel and moxidectin were diluted in the same manner, and used as positive control compounds. Assays were performed in triplicate, three times, on separate days. To establish IC50 values, compound concentrations were log10-transformed, fitted using a variable slope four-parameter equation, constraining the maximum value to 100% using a least squares (ordinary) fit model employing GraphPad Prism (v. 9.0.2) software.

[3] = system: exsheathed third-stage larvae (xL3) / fourth-stage larvae (L4) of Haemonchus contortus; test: Dose-response assay, inhibition of larval development (xL3 to L4) and phenotype over 7 days; conditions: seven days; for proportion of larvae exhibiting the phenotype at 100 µM / phenotype of larvae after exposure for 7 days: 100 µM; for phenotype of larvae after exposure for 7 days: xL3s/L4s; for IC50: Haemonchus contortus, 168 h
Method: as §1
Following the measurement of larval motility at 72 h, plates containing xL3s were incubated for four more days at 38 °C [10% (v/v) CO2 and >90% relative humidity] to test the active compounds (MPK18, MPK334 and YAK308) for their effect on the larval development over 7 days. Subsequently, worms were fixed in 1% iodine, and the rate of larval development was assessed microscopically appraising the presence (L4) or absence (xL3) of mouth and pharynx, and direct comparison with negative (untreated) controls (LB* + 0.5% DMSO). Thirty worms from each well were examined at 50-times magnification, and the number of L4s was expressed as a percentage of the total number. Assays were performed in triplicate, three times, on separate days. To establish IC50 values, compound concentrations were log10-transformed, fitted using a variable slope four-parameter equation with constraining the top value to 100% using a least squares (ordinary) fit model using GraphPad Prism (v. 9.0.2) software.

[4] = Toxicity on HepG2 cells (crystal violet staining); conditions: HepG2 human hepatoma cells
Method: HepG2 human hepatoma cells were seeded into wells of a 96-well microtitre plate in 80 µL of Dulbecco’s modified eagle medium (DMEM), supplemented with 10% foetal bovine serum, 100 U/mL of penicillin, 100 µg/mL of streptomycin and 0.25 µg/mL of amphotericin B (DMEM*) at a density of 1 × 10^5 cells per well. Cells were allowed to adhere for 16 h at 37 °C and 5% (v/v) CO2 at >90% humidity, and incubated with individual, serially-diluted compounds (7-points, 2-fold dilution in DMEM*, from 100 µM to 1.56 µM) in a final volume of 100 µL. Doxorubicin (10 µM) and DMEM* + 0.25% DMSO (vehicle), serving as positive and negative controls, respectively, were added to the individual 96-well plates. Monepantel and moxidectin were also serially diluted—prepared in the same manner as active compounds—and used as ‘negative’ reference controls. After 48 h of incubation, cellular viability was determined by the crystal violet staining assay. The absorbance at 595 nm of treated cells was compared with that of the controls (exposed only to the vehicle, with 100% viability). Compounds and controls were tested in triplicate. To determine the half cytotoxic concentration (CC50) values, compound concentrations were log10-transformed, fitted using a variable slope four-parameter equation with a least squares (ordinary) fit model employing GraphPad Prism (v. 9.0.2) software.

[5] = mean ± SEM, read-out: L4 Development (7 days) IC50 ± SEM

SMILES | proportion of xL3s exhibiting the phenotype in the primary screen [1] | phenotype induced in xL3s in the primary screen [1] | xL3 Motility (72 h) Inhibition (%) [2] | IC50 [2] | proportion of larvae exhibiting the phenotype at 100 µM [3] | phenotype of larvae after exposure for 7 days [3] | IC50 [3, 5] | CC50 at 48 h [4] | IC50 ([3]; read-out: concentration at which active on larval development (IC50 not determined)) | phenotype induced in xL3s in the primary screen ([1]; listed as YAK 308)
O=C(/C=C/c1ccccc1)c1ccc(Br)cc1O [MPK334] | ~ 50% | coiled | 74.2% | 17.1 ± 4.2 µM | 100% | curved | 12.3 ± 2.3 µM | > 100 µM |  | 
Cc1ccc(/C=C/C(=O)NOCc2ccccc2)cc1 [MPK18] | ~ 50% | coiled | 30.0% | 45.2 ± 4.6 µM |  | not observed; also recorded: Wild type |  | > 100 µM | > 25 µM | 
COc1cc(OC)cc(C(=O)Nc2nc(-c3ccccc3)cs2)c1 [YAK308] | ~ 90% | curved | 34.6% | 52.7 ± 6.7 µM | 22% | evisceration and evi | 6.5 ± 1.6 µM | > 100 µM |  | Curved
C[C@](C#N)(COc1cc(C#N)ccc1C(F)(F)F)NC(=O)c1ccc(SC(F)(F)F)cc1 [Monepantel, monepantel, reference compound] |  | Coiled | 90.3% | 0.6 ± 0.1 µM |  |  | 0.4 ± 0.05 µM | > 100 µM |  | 
CO/N=C1\C[C@]2(C[C@@H]3C[C@@H](C/C=C(\C)C[C@@H](C)/C=C/C=C4\CO[C@@H]5[C@H](O)C(C)=C[C@@H](C(=O)O3)[C@]45O)O2)O[C@H](/C(C)=C/C(C)C)[C@H]1C [Moxidectin, moxidectin, reference compound] |  | Relaxed | 85.1% | 0.8 ± 0.2 µM |  |  | 12.4 ± 0.1 µM | > 100 µM |  | 
